# Reference: US12351574B2, “Selective ligands for modulation of GIRK channels” (Northeastern University, priority 2018, dated 2025)
# What was measured:
# [1] = cardiovascular radiotelemetry in freely moving rats; type: in vivo, rat; conditions: 30 mg/kg
# Experimental: Cardiovascular experiments: Radiotelemetry probes [Cat. no. HD-S11, Data Sciences International, St. Paul, MN, United States] were surgically implanted into the peritoneal cavity and sutured to the muscle wall in order to assess general motor activity and temperature. A pressure transducer was implanted into the femoral artery to assess cardiovascular responses [i.e., mean arterial blood pressure (MAP) and heart rate (HR)]. Animals were injected with selected compounds following a 10 min baseline period and data points were analayzed between 20 min and 60 min after injection. This allowed us to investigate ligand effects without confounding effects of animal handling or the injection itself and to allow the ligand to cross the blood-brain barrier.
# open-field (OF) test = type: in vivo, rat
# Source text: Open-field (OF) test: The OF apparatus is a plexiglass open-topped chamber (91.5×91.5×30.5 cm), filmed by a ceiling-mounted CCD camera and illuminated by a 25 W red light bulb placed 2 meters above the center of the chamber. […] The automated tracking system ANY-MAZE (ANY-MAZE, Stoelting Co., Wood Dale, IL, USA) was utilized to measure total distance traveled and mean speed.
# GIRK1/4 = molecular target: T1, GIRK1/4 (Homo sapiens, UniProt P48544+P48549); assay: two-electrode voltage clamp (TEVC) in Xenopus oocytes expressing GIRK1/4 wild-type; type: cell-based; parameters: expressed in transfected cells; host or cells: Xenopus laevis oocytes (cRNA injection)
# T1 sequence (P48549 1-501): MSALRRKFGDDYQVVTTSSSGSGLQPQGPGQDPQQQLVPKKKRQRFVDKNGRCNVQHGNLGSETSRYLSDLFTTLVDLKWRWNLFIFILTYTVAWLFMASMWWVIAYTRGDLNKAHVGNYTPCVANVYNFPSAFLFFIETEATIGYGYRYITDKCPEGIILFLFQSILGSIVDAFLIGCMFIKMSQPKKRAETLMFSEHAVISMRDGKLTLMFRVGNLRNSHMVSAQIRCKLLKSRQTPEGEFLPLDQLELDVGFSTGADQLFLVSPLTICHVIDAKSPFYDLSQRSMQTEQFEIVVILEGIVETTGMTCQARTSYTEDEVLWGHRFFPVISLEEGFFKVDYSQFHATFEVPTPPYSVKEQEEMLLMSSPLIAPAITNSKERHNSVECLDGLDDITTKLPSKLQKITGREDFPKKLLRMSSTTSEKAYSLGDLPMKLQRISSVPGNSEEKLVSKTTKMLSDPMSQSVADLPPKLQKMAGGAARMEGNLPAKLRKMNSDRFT
# T1 sequence (P48544 1-419): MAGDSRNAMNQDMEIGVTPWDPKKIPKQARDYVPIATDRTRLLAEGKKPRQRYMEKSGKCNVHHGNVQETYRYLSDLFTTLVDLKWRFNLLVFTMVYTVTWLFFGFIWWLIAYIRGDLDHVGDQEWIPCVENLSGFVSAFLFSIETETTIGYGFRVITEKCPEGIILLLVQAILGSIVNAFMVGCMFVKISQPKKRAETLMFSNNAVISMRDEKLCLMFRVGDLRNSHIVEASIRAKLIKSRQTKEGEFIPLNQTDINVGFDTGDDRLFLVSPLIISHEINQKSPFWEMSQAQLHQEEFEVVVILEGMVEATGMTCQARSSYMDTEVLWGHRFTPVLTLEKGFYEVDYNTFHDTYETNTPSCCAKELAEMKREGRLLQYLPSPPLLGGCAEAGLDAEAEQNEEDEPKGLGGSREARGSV
# Source text: Molecular biology: For Xenopus oocyte expression, human GIRK1 and human GIRK4 cDNAs were subcloned into pGEMHE. For mammalian expression, human GIRK1 and human GIRK4 cDNAs were subcloned into pcDNA3 and pcDNA3.1/V5-His B, respectively (Invitrogen). Mouse GIRK2 cDNA was subcloned in the dual-function vector, pXoom. Point mutations were introduced using a standard Pfu-based mutagenesis technique according to the QuikChange protocol (Agilent). Mutations were verified by sequencing.
# Xenopus laevis oocyte expression: Plasmid DNAs of GIRK channel subunits were linearized prior to in vitro transcription. Capped RNAs were transcribed using mMESSAGE mMACHINE T7 Transcription Kit (Thermo Fisher Scientific). Xenopus oocytes were surgically extracted, dissociated and defolliculated by collagenase treatment, and microinjected with 50 nl of a water solution containing 1 ng of each GIRK subunit RNA. For TEVC experiments, oocytes were kept 2 days at 17° C. before recording, while for NPo experiments oocytes were incubated for up to 4 days at 17° C.
# Xenopus laevis oocyte expression: All cDNA constructs in the pGEMHE vector were linearized using the NheI restriction enzyme, whereas those in the pXoom vector were linearized using the XhoI restriction enzyme. Linearized cDNAs were in vitro-transcribed using the mMessage mMachine® kit (Ambion) kit. Complementary RNA (cRNA) concentrations were quantified by optical density. Xenopus oocytes were surgically extracted, dissociated, and defolliculated by collagenase treatment and microinjected with 50 nl of the desired cRNAs diluted in RNAase-free water. The use of Xenopus laevis frogs for this study was approved by the Institutional Animal Care and Use Committee (IACUC) at Northeastern University. All constructs used in this study were injected to achieve between 1-2 ng per oocyte depending on the channel. Oocytes were incubated for 2 days at 18° C.
# Electrophysiology of oocytes: Whole-oocyte currents were measured by conventional two-electrode voltage clamp (TEVC) with a GeneClamp 500 amplifier (Axon Instruments). […] Barium-sensitive currents were normalized to average basal current in the vehicle solutions. The HK solution contained the following: 96 mM KCl, 1 mM NaCl, 1 mM MgCl2, 5 mM KOH/HEPES, pH 7.4. The barium solution consisted of HK+10 mM BaCl2. Five to ten oocytes from the same batch (same frog) were recorded for each group, and the experiments were repeated in at least four batches. Data acquisition and analysis were carried out using pClamp9 (Molecular Devices) and OriginPro (Microcal) software.
# [2] = 30 and 60 mg/kg, 30 min after treatment
mean speed in the OF test (in words) (open-field (OF) test; 10 and 30 mg/kg i.p.),total distance travelled in the OF test (in words) (open-field (OF) test; 10 and 30 mg/kg i.p.),"GAT1508-induced potassium current, GIRK1/4 (in words) (GIRK1/4; 10 μM, 10 mM K+, holding potential −100 mV)","GAT1508-induced thallium current, GIRK1/4 (in words) (GIRK1/4; 10 μM, 10 mM thallium, holding potential −100 mV)",mean speed in the open arena (in words) (open-field (OF) test; [2]),total distance traveled in the open arena (in words) (open-field (OF) test; [2]),"compound-induced current normalized to the basal current, GIRK1+GIRK4 (GIRK1/4; 10 μM, High Potassium (HK) solution, FIG. 31)","EMAX at GIRK1/4, % relative to ML297 (GIRK1/4; ML297 considered 100%)","EC50 (GIRK1/4; TEVC, Xenopus oocytes, GIRK1/4 wild-type)",EMAX at GIRK1/4 (GIRK1/4; current normalized to basal current),Structure (SMILES),change in heart rate (HR) (in words) [1],change in locomotor activity (LA) (in words) [1],change in mean arterial pressure (MAP) (in words) [1],change in body temperature (BT) (in words) [1]
comparable to the vehicle group,comparable to the vehicle group,not,induced current increases,,,,,,,"Cc1cc(NC(=O)Nc2ccc(Br)s2)n(-c2ccccc2)n1 [GAT1508, 1-(5-bromothiophen-2-yl)-3-(3-methyl-1-phenyl-1H-pyrazol-5-yl)urea]",no significant changes,no significant changes,no significant changes,
,,,,comparable to the vehicle group,comparable to the vehicle group,~1.75,100%,500 ± 260 nM,1.60±0.07,"Cc1cc(NC(=O)Nc2ccc(F)c(F)c2)n(-c2ccccc2)n1 [ML297, reference compound]",paradoxical long-lasting increases,without affecting significantly,paradoxical long-lasting increases,without affecting significantly
